Experimental data published in patent publication US20080009418A1, “Selective Inhibitors” (Alchemia LTD., priority 2004, published 2008).

Assays:
[1] = target: T1, Human δ-opioid (DOP) (Homo sapiens, UniProt P41143); experiment: Radioligand binding, human δ-opioid (DOP) membranes, FlashPlate, [3H]-Bremazocine; conditions: compound at 10 μM; for A1: inhibition of radioligand binding / A1: inhibition of radioligand binding, human δ-opioid (DOP): [3H]-Bremazocine; for A1: inhibition of radioligand binding: human DOP membranes
T1 construct: purchased Perkin Elmer Biosignal
Outline: (§1)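 Cloned human receptor membranes were coated onto FlashPlate wells and incubated with radioligand and compound (added from a 0.5 mM DMSO daughter plate) for 1 hour at room temperature in the dark. Scintillation counting gave percent inhibition, with DMSO defining total and reference ligand defining non-specific binding.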

[2] = target: T2, Human κ-Opioid (KOP) (Homo sapiens, UniProt P41145); experiment: Radioligand binding, human κ-opioid (KOP) membranes, filtration, [3H]-Diprenorphine; conditions: compound at 10 μM; for A2: inhibition of radioligand binding / A2: inhibition of radioligand binding, human κ-opioid (KOP): [3H]-Diprenorphine; for A2: inhibition of radioligand binding: human KOP membranes
T2 construct: purchased Perkin Elmer Biosignal
Outline: (§2)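 Filtration binding on cloned human receptor membranes (1 Unit/well), [125I]-Substance P for NK1 and [3H]-Diprenorphine for KOP, 1 h at room temperature. Filters PEI-presoaked, washed with cold 50 mM Tris-HCl pH 7.4, counted by scintillation; percent inhibition calculated, reference ligand defining non-specific binding.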

[3] = target: T3, Human Melanocortin (MC3) (Homo sapiens, UniProt P41968); experiment: Radioligand binding, human melanocortin MC3 membranes, FlashPlate, [125I]-NDP-αMSH; conditions: compound at 10 μM; for A3: inhibition of radioligand binding / A3: inhibition of radioligand binding, human melanocortin (MC3): [125I]-NDP-αMSH; for A3: inhibition of radioligand binding: human MC3 membranes
T3 construct: purchased Perkin Elmer Biosignal
Outline: as §1

[4] = target: T4, Human Melanocortin (MC4) (Homo sapiens, UniProt P32245); experiment: Radioligand binding, human melanocortin MC4 membranes, FlashPlate, [125I]-NDP-αMSH; conditions: compound at 10 μM; for A4: inhibition of radioligand binding / A4: inhibition of radioligand binding, human melanocortin (MC4): [125I]-NDP-αMSH; for A4: inhibition of radioligand binding: human MC4 membranes
T4 construct: purchased Perkin Elmer Biosignal
Outline: as §1

[5] = target: T5, Human melanocortin (MC5) (Homo sapiens, UniProt P33032); experiment: Radioligand binding, human melanocortin MC5 membranes, FlashPlate, [125I]-NDP-αMSH; conditions: compound at 10 μM; for A5: inhibition of radioligand binding / A5: inhibition of radioligand binding, human melanocortin (MC5): [125I]-NDP-αMSH; for A5: inhibition of radioligand binding: human MC5 membranes
T5 construct: purchased Perkin Elmer Biosignal
Outline: as §1

[6] = target: T6, Human melanin-concentrating hormone (MCH1) (Homo sapiens, UniProt Q99705); experiment: Radioligand binding, human melanin-concentrating hormone MCH1 membranes, FlashPlate, [125I]-S36057; conditions: compound at 10 μM; for A6: inhibition of radioligand binding: [125I]-S36057, human MCH1 membranes; for A6: inhibition of radioligand binding, human melanin-concentrating hormone (MCH1): [125I]-S36057
T6 construct: purchased Perkin Elmer Biosignal
Outline: as §1

[7] = target: T7, Human μ-opioid (MOP) (Homo sapiens, UniProt P35372); experiment: Radioligand binding, human μ-opioid (MOP) membranes, FlashPlate, [3H]-Naloxone; conditions: compound at 10 μM; for A7: inhibition of radioligand binding / A7: inhibition of radioligand binding, human μ-opioid (MOP): [3H]-Naloxone; for A7: inhibition of radioligand binding: human MOP membranes
T7 construct: purchased Perkin Elmer Biosignal
Outline: as §1

[8] = target: T8, Human neurokinin (NK1) (Homo sapiens, UniProt P25103); experiment: Radioligand binding, human neurokinin NK1 membranes, filtration, [125I]-Substance P; conditions: compound at 10 μM; for A8: inhibition of radioligand binding / A8: inhibition of radioligand binding, human neurokinin (NK1): [125I]-Substance P; for A8: inhibition of radioligand binding: human NK1 membranes
T8 construct: purchased Perkin Elmer Biosignal
Outline: as §2

[9] = target: T9, Human neuropeptide Y (NPY-Y1) (Homo sapiens, UniProt P25929); experiment: Radioligand binding, human neuropeptide Y NPY-Y1 membranes, FlashPlate, [125I]-PYY; conditions: compound at 10 μM; for A9: inhibition of radioligand binding / A9: inhibition of radioligand binding, human neuropeptide Y (NPY-Y1): [125I]-PYY
T9 construct: purchased Perkin Elmer Biosignal
T9 sequence (P25929 1-384): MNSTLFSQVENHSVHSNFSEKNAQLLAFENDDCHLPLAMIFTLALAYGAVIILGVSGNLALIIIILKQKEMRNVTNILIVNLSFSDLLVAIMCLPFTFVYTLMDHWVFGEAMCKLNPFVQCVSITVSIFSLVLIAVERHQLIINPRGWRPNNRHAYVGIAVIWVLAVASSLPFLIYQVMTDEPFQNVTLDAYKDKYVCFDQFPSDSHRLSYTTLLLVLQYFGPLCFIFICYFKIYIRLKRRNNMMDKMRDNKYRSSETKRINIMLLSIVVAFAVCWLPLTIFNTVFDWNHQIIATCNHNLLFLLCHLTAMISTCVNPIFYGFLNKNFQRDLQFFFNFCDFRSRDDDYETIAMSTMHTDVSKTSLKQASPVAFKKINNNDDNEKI
Outline: as §1

[10] = target: T10, Human opioid (ORL1) (Homo sapiens, UniProt P41146); experiment: Radioligand binding, human opioid ORL1 membranes, FlashPlate, [125I]-Nociceptin; conditions: compound at 10 μM; for A10: inhibition of radioligand binding / A10: inhibition of radioligand binding, human opioid (ORL1): [125I]-Nociceptin
T10 construct: purchased Perkin Elmer Biosignal
Outline: as §1

[11] = target: T11, Mouse urotensin (mUR2) (Mus musculus, UniProt Q8VIH9); experiment: Radioligand binding, mouse urotensin mUR2 membranes, FlashPlate, [125I]-Urotensin II; conditions: compound at 10 μM; for A11: inhibition of radioligand binding / A11: inhibition of radioligand binding, mouse urotensin (mUR2): [125I]-Urotensin II; for A11: inhibition of radioligand binding: mouse mUR2 membranes
T11 construct: purchased Perkin Elmer Biosignal
T11 sequence (Q8VIH9 1-385): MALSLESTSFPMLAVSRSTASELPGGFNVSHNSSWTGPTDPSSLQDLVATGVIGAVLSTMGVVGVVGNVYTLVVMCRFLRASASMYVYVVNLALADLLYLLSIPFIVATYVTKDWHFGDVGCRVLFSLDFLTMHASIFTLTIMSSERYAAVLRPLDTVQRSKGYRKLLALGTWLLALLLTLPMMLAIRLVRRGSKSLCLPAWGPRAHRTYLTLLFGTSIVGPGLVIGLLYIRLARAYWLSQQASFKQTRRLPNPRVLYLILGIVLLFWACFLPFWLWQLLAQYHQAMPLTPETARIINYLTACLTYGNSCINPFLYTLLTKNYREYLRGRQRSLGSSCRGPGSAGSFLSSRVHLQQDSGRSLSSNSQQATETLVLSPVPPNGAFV
Outline: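 Cloned mouse urotensin (mUR2) receptor membranes from Perkin Elmer Biosignal were immobilized in FlashPlate microplates using a proprietary coating. Each well got 19.5 μl buffer, then 0.5 μl of DMSO, reference ligand, or compound. Adding 5 μl of [125I]-Urotensin II, diluted to 5× final concentration in binding buffer, started binding. Plates were sealed with TopSeal-A and incubated 1 hour at room temperature in the dark. Wells were counted for 30 seconds each on a TopCount after a 60-second delay, and percentage inhibition was calculated.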

T10 sequence (P41146 whole entry): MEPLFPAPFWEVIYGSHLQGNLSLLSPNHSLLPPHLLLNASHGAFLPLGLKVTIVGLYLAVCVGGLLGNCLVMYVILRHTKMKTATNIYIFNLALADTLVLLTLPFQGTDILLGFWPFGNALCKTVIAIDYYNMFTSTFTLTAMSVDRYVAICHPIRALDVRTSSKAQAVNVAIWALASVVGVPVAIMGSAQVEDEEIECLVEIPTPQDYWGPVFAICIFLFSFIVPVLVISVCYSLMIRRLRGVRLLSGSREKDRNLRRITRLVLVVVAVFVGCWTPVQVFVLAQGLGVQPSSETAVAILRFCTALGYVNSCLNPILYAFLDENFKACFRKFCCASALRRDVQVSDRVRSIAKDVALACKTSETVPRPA
T8 sequence (P25103 whole entry): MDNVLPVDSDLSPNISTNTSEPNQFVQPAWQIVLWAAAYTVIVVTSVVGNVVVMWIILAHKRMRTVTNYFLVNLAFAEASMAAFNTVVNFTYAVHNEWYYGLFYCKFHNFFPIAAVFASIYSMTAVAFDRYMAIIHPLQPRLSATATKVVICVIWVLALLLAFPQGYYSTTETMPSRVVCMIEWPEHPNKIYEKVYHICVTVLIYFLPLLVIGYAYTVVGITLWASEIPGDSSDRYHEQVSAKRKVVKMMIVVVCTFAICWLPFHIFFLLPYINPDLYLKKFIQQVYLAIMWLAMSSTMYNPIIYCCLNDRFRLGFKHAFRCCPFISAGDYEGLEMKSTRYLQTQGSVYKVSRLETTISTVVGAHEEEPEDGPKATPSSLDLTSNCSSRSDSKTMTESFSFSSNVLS
T5 sequence (P33032 whole entry): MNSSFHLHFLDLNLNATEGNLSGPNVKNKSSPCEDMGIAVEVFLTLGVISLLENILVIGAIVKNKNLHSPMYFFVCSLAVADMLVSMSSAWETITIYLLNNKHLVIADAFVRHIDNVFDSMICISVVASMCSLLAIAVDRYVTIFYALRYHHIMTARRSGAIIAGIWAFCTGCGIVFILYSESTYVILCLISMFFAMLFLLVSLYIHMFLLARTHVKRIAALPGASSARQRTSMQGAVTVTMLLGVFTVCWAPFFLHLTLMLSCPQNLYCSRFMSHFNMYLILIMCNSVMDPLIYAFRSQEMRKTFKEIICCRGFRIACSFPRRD
T7 sequence (P35372 whole entry): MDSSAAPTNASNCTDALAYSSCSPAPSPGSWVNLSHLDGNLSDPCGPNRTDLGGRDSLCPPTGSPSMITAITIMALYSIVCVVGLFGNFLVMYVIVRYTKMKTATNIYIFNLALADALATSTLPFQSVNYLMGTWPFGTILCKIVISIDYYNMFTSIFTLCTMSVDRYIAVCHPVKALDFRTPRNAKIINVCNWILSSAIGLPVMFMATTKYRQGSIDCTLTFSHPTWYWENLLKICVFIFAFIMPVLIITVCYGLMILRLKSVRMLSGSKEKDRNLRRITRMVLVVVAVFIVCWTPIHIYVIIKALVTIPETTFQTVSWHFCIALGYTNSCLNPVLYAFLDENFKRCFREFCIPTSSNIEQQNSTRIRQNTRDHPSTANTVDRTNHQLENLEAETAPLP
T1 sequence (P41143 whole entry): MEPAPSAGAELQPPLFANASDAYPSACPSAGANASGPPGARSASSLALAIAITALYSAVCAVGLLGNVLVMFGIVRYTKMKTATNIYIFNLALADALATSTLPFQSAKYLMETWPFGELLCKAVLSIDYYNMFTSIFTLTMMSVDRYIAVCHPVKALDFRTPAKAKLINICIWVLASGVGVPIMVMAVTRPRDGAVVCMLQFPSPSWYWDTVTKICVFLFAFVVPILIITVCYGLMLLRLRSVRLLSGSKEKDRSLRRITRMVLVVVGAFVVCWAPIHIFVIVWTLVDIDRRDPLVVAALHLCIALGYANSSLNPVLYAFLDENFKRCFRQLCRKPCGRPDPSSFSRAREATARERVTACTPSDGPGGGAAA
T4 sequence (P32245 whole entry): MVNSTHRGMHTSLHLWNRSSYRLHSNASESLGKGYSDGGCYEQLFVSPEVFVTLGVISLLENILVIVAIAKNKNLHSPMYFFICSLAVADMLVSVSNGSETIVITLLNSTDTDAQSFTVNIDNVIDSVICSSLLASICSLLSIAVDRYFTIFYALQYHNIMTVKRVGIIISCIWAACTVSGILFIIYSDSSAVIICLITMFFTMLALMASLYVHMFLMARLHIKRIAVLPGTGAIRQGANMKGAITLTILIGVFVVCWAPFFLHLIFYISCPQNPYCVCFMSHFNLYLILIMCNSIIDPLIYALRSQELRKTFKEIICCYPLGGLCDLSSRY
T6 sequence (Q99705 whole entry): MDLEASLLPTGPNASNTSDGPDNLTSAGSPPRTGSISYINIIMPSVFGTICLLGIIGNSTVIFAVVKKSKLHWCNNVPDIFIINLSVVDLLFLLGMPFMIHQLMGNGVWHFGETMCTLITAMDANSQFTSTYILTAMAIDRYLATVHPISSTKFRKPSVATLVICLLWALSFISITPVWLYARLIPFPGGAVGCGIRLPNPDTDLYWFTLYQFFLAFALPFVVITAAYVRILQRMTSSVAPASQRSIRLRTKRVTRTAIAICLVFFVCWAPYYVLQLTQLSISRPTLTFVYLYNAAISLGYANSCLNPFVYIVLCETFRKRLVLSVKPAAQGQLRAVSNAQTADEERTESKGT
T3 sequence (P41968 whole entry): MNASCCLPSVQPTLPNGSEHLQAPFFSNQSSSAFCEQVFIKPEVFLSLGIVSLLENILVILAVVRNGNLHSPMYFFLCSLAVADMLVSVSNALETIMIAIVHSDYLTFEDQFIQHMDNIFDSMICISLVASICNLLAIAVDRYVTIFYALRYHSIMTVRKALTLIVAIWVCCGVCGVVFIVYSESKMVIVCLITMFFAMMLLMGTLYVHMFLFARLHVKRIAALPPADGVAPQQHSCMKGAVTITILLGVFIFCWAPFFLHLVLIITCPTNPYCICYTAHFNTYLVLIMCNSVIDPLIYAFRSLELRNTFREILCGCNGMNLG
T2 sequence (P41145 whole entry): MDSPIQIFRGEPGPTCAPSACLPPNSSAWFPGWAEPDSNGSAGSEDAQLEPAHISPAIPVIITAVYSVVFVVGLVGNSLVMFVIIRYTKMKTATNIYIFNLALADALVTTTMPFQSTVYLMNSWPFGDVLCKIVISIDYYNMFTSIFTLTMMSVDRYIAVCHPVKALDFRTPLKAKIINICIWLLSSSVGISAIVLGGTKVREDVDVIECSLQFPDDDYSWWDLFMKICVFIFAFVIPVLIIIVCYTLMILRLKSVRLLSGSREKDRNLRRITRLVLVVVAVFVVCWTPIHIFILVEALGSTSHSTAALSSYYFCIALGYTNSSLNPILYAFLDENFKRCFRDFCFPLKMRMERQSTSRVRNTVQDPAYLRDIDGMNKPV

Compound: COC[C@H]1OC(OCc2ccc3ccccc3c2)[C@H](NC(=O)CCCNC(=N)N)[C@@H](OCc2ccccc2)[C@@H]1O (stereo partly shown) [compound 21]
- A1 radioligand binding inhibition ([1]; human δ-opioid (DOP) membranes): − (“−” indicates less than 50% inhibition at 10 μM)
- A2 radioligand binding inhibition ([2]; human κ-opioid (KOP) membranes): − (“−” indicates less than 50% inhibition at 10 μM)
- A3 radioligand binding inhibition ([3]; human melanocortin MC3 membranes): − (“−” indicates less than 50% inhibition at 10 μM)
- A4 radioligand binding inhibition ([4]; human melanocortin MC4 membranes): − (“−” indicates less than 50% inhibition at 10 μM)
- A5 radioligand binding inhibition ([5]; human melanocortin MC5 membranes): − (“−” indicates less than 50% inhibition at 10 μM)
- A6 radioligand binding inhibition ([6]; human MCH1 membranes): − (“−” indicates less than 50% inhibition at 10 μM)
- A7 radioligand binding inhibition ([7]; human μ-opioid (MOP) membranes): − (“−” indicates less than 50% inhibition at 10 μM)
- A8 radioligand binding inhibition ([8]; human neurokinin NK1 membranes): + (“+” indicates greater than 50% inhibition at 10 μM)
- A9 radioligand binding inhibition ([9]; human NPY-Y1 membranes): − (“−” indicates less than 50% inhibition at 10 μM)
- A10 radioligand binding inhibition ([10]; human ORL1 membranes): − (“−” indicates less than 50% inhibition at 10 μM)
- A11 radioligand binding inhibition ([11]; mouse urotensin mUR2 membranes): − (“−” indicates less than 50% inhibition at 10 μM)

Compound: NCCC(=O)NC1C(OCc2ccc3ccccc3c2)OC(COCc2ccccc2)C(O)C1OCc1ccc2ccccc2c1 (stereo not shown) [compound 385]
- A1: inhibition of radioligand binding [1]: − (“−” indicates less than 50% inhibition at 10 μM)
- A2: inhibition of radioligand binding [2]: − (“−” indicates less than 50% inhibition at 10 μM)
- A3: inhibition of radioligand binding [3]: + (“+” indicates greater than 50% inhibition at 10 μM)
- A4: inhibition of radioligand binding [4]: + (“+” indicates greater than 50% inhibition at 10 μM)
- A5: inhibition of radioligand binding [5]: + (“+” indicates greater than 50% inhibition at 10 μM)
- A6: inhibition of radioligand binding [6]: + (“+” indicates greater than 50% inhibition at 10 μM)
- A7: inhibition of radioligand binding [7]: − (“−” indicates less than 50% inhibition at 10 μM)
- A8: inhibition of radioligand binding [8]: + (“+” indicates greater than 50% inhibition at 10 μM)
- A9: inhibition of radioligand binding ([9]; human NPY-Y1 membranes): − (“−” indicates less than 50% inhibition at 10 μM)
- A10: inhibition of radioligand binding ([10]; human ORL1 membranes): − (“−” indicates less than 50% inhibition at 10 μM)
- A11: inhibition of radioligand binding [11]: − (“−” indicates less than 50% inhibition at 10 μM)

Compound: NCCCC(=O)NC1C(OCc2ccc3ccccc3c2)OC(COCc2ccc3ccccc3c2)C(O)C1OCc1ccc2ccccc2c1 (single isomer, unassigned) [compound 461]
- A1: inhibition of radioligand binding [1]: − (“−” indicates less than 50% inhibition at 10 μM)
- A2: inhibition of radioligand binding [2]: − (“−” indicates less than 50% inhibition at 10 μM)
- A3: inhibition of radioligand binding ([3]; 10 µM): + (“+” indicates greater than 50% inhibition at 10 μM)
- A4: inhibition of radioligand binding ([4]; 10 µM): + (“+” indicates greater than 50% inhibition at 10 μM)
- A5: inhibition of radioligand binding [5]: + (“+” indicates greater than 50% inhibition at 10 μM)
- A6: inhibition of radioligand binding ([6]; 10 µM): + (“+” indicates greater than 50% inhibition at 10 μM)
- A7: inhibition of radioligand binding ([7]; 10 µM): + (“+” indicates greater than 50% inhibition at 10 μM)
- A8: inhibition of radioligand binding [8]: + (“+” indicates greater than 50% inhibition at 10 μM)
- A9: inhibition of radioligand binding ([9]; human NPY-Y1 membranes): − (“−” indicates less than 50% inhibition at 10 μM)
- A10: inhibition of radioligand binding ([10]; human ORL1 membranes, 10 µM): + (“+” indicates greater than 50% inhibition at 10 μM)
- A11: inhibition of radioligand binding [11]: − (“−” indicates less than 50% inhibition at 10 μM)

Compound: NCCCC(=O)NC1C(OCc2ccc(Cl)cc2)OC(COCc2ccc(Cl)cc2)C(O)C1OCc1ccc2ccccc2c1 (single isomer, unassigned) [compound 499]
- A1: inhibition of radioligand binding, human δ-opioid (DOP) [1]: − (“−” indicates less than 50% inhibition at 10 μM)
- A2: inhibition of radioligand binding, human κ-opioid (KOP) [2]: − (“−” indicates less than 50% inhibition at 10 μM)
- A3: inhibition of radioligand binding, human melanocortin (MC3) [3]: + (“+” indicates greater than 50% inhibition at 10 μM)
- A4: inhibition of radioligand binding, human melanocortin (MC4) [4]: + (“+” indicates greater than 50% inhibition at 10 μM)
- A5: inhibition of radioligand binding, human melanocortin (MC5) [5]: + (“+” indicates greater than 50% inhibition at 10 μM)
- A6: inhibition of radioligand binding, human melanin-concentrating hormone (MCH1) ([6]; 10 µM): − (“−” indicates less than 50% inhibition at 10 μM)
- A7: inhibition of radioligand binding, human μ-opioid (MOP) ([7]; 10 µM): − (“−” indicates less than 50% inhibition at 10 μM)
- A8: inhibition of radioligand binding, human neurokinin (NK1) [8]: + (“+” indicates greater than 50% inhibition at 10 μM)
- A9: inhibition of radioligand binding, human neuropeptide Y (NPY-Y1) [9]: − (“−” indicates less than 50% inhibition at 10 μM)
- A10: inhibition of radioligand binding, human opioid (ORL1) [10]: + (“+” indicates greater than 50% inhibition at 10 μM)
- A11: inhibition of radioligand binding, mouse urotensin (mUR2) [11]: − (“−” indicates less than 50% inhibition at 10 μM)

Compound: CSC1O[C@H](COCc2ccc(Cl)cc2)[C@@H](O)[C@@H](OCc2ccc(-c3ccccc3)cc2)[C@H]1NC(=O)CCNC(=N)N (stereo partly shown) [compound 291]
- A1: inhibition of radioligand binding, human δ-opioid (DOP) [1]: − (“−” indicates less than 50% inhibition at 10 μM)
- A2: inhibition of radioligand binding, human κ-opioid (KOP) [2]: − (“−” indicates less than 50% inhibition at 10 μM)
- A3: inhibition of radioligand binding, human melanocortin (MC3) [3]: − (“−” indicates less than 50% inhibition at 10 μM)
- A4: inhibition of radioligand binding, human melanocortin (MC4) [4]: + (“+” indicates greater than 50% inhibition at 10 μM)
- A5: inhibition of radioligand binding, human melanocortin (MC5) [5]: − (“−” indicates less than 50% inhibition at 10 μM)
- A6: inhibition of radioligand binding, human melanin-concentrating hormone (MCH1) [6]: − (“−” indicates less than 50% inhibition at 10 μM)
- A7: inhibition of radioligand binding, human μ-opioid (MOP) [7]: − (“−” indicates less than 50% inhibition at 10 μM)
- A8: inhibition of radioligand binding, human neurokinin (NK1) [8]: + (“+” indicates greater than 50% inhibition at 10 μM)
- A9: inhibition of radioligand binding, human neuropeptide Y (NPY-Y1) [9]: − (“−” indicates less than 50% inhibition at 10 μM)
- A10: inhibition of radioligand binding, human opioid (ORL1) [10]: − (“−” indicates less than 50% inhibition at 10 μM)
- A11: inhibition of radioligand binding, mouse urotensin (mUR2) [11]: − (“−” indicates less than 50% inhibition at 10 μM)
